# Data reported in article PMC4436076 (mBio, 2015).
# Peptide text beside a SMILES is read from it. * marks the point of attachment. Cbz = O=C(OCc1ccccc1)*
# How the values were obtained:
# Type in all cases: cell-based
# M. smegmatis [1] = assay: microbe, parasite or virus in culture
# Mycobacterium bovis BCG = assay: microbe, parasite or virus in culture
# M. smegmatis [2] = test system: M. smegmatis
# WT M. smegmatis = details: subinhibitory, 24 h, OD600
# M. tuberculosis H37Rv = assay: microbe, parasite or virus in culture; details: Mycobacterium tuberculosis, 120 h
# [3] = test system: caseinolytic protease substrate WhiB1 (M. smegmatis pTet-GFP-WhiB1)
SMILES,"Growth inhibition of WT M. smegmatis, in words (M. smegmatis [1])","Growth inhibition of WT M. bovis, in words (Mycobacterium bovis BCG)",other results
CC(C)C[C@H](NC(=O)[C@@H](NC(=O)c1cccc(-c2ccccc2)n1)[C@@H](C)O)B(O)O [CEP-18770],same potent growth inhibition as BZ,strongest growth inhibition,–
CC(C)C[C@@H](C=O)NC(=O)[C@H](CC(C)C)NC(=O)[C@H](CC(C)C)NC(=O)OCc1ccccc1 [MG-132] (Cbz-Leu-Leu-Leu-aldehyde),completely abrogated,no response,–
"CC(C)C[C@H](NC(=O)[C@H](Cc1ccccc1)NC(=O)c1cnccn1)B(O)O [compound 100, bortezomib]",showed an effect,strongest growth inhibition,"MBC90 (minimum bactericidal concentration that kills 90% of an initial inoculum) (M. smegmatis [2]): 30 µM; Growth inhibition in combination with amikacin (WT M. smegmatis; BZ 1.5 µM + amikacin 0.4 µM): complete growth inhibition; Potentiation of chloramphenicol (WT M. smegmatis; BZ 1.5 µM + chloramphenicol 4.5 µM): no potentiation effect; Growth inhibition in combination with streptomycin (WT M. smegmatis; BZ 1.5 µM + streptomycin 0.05 µM): complete growth inhibition; MIC50 (M. tuberculosis H37Rv): 0.8 µM; MIC50 (M. smegmatis [1]; Mycolicibacterium smegmatis, 24 h): 4 µM; MIC50 (Mycobacterium bovis BCG; Mycobacterium tuberculosis variant bovis BCG, BCG, 120 h): 0.3 µM; GFP-WhiB1 fluorescence [3]: increased fluorescence in a dose-dependent manner"
CC(C)C[C@H](NC(=O)CNC(=O)c1cc(Cl)ccc1Cl)B1OC(=O)C(CC(=O)O)(CC(=O)O)O1 [MNL-9708],active,–,–
CC(C)C[C@H](NC(=O)CNC(=O)c1cc(Cl)ccc1Cl)B(O)O [MNL-2238],weaker growth inhibition,–,–
